Values quoted from earlier work as cited in patent US5879680A, “Cloned DNA for synthesizing unique glucocerebrosidase” (The United States of America as represented by the …, priority 1995, dated 1999).

Target: human placental glucocerebrosidase (Homo sapiens, UniProt P04062)
Details: placental enzyme, reported by Basu et al, J.B.C. 259:1714, 1984

Sequence of human placental glucocerebrosidase (P04062 40-536): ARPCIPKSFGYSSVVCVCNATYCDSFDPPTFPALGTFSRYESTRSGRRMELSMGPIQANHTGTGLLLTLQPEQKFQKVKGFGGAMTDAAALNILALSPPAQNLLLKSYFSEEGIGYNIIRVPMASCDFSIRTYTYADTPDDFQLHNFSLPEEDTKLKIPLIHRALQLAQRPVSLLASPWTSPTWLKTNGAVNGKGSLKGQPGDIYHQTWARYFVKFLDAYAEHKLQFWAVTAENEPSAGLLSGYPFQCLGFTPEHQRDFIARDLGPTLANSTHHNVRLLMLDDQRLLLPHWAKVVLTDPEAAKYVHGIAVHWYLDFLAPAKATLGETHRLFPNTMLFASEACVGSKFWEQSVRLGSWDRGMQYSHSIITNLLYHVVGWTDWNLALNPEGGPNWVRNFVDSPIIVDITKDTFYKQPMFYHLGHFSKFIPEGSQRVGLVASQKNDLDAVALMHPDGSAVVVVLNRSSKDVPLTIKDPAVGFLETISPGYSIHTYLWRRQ

Km: 8 mM
SMILES: Cc1cc(=O)oc2cc(O[C@@H]3O[C@H](CO)[C@@H](O)[C@H](O)[C@H]3O)ccc12 [4MUGP, 4-methylumbellifery-β-D-glucopyranoside]
